A short description of data set [1]: Gravimetric vapour sorption (GVS). Type of data set: physicochemical. The procedure:
Approximately 10-20 mg of sample was placed into a mesh vapour sorption balance pan and loaded into an IGASorp Moisture Sorption Analyser balance by Hiden Analytical. The sample was subjected to a ramping profile from 40-90% relative humidity (RH) at 10% increments, maintaining the sample at each step until a stable weight had been achieved (98% step completion, minimum step length 30 minutes, maximum step length 60 minutes) at 25° C. After completion of the sorption cycle, the sample was dried using the same procedure to 0% RH, and finally taken back to the starting point of 40% RH. Two cycles were performed. The weight change during the sorption/desorption cycles were plotted, allowing for the hygroscopic nature of the sample to be determined.

Another data set concerns α-syn aggregation. The data set can be described thus: α-synuclein aggregation in TH(+) neurons after MPP+ injury. In kind it is cell-based, rat. The following applies: MPP+ 4 μM 48 h. The procedure: (§1) Rat dopaminergic neurons were cultured as described by Visanji et al. in FASEB J. 2008, 22(7): 2488-2497 and Callizot et al., in Plos One 2019: https://doi.org/10.1371/journal.pone.0215277. Briefly, pregnant female rat (Wistar) of 15 days of gestation were killed using a deep anesthesia with CO2 chamber and a cervical dislocation. The midbrains obtained from 15-day-old rat embryos (Janvier, France) were dissected under a microscope. The embryonic midbrains were removed and placed in ice-cold medium of Leibovitz (L15) containing 2% of Penicillin-Streptomycin (PS) and 1% of BSA. The ventral portion of the mesencephalic flexure, a region of the developing brain rich in dopaminergic neurons, were used for the cell preparations. The midbrains were dissociated by trypsinization for 20 min at 37° C. (solution at a final concentration of 0.05% trypsin and 0.02% EDTA). The reaction was stopped by the addition of DMEM containing DNAase I grade II (0.5 mg/mL) and 10% of FCS. […] Viable cells were counted in a Neubauer cytometer using the trypan blue exclusion test. […]
(§2) The following read-outs were investigated: • neuron survival: total number of TH neurons (TH staining), • neurite network: total length of neurite network of TH positive neurons (in μm) • α-syn aggregation (area of overlapping between TH and α-syn staining in μm^2) […]

Data set [2] concerns dopaminergic (TH positive) neurons. The data set can be described thus: Survival and neurite network of TH(+) mesencephalic neurons after MPP+ injury. The following applies: MPP+ 4 μM 48 h; 50 nM dose. Type of data set: cell-based, rat. The procedure: as §1, §2

The source of these data is patent US20230391729A1, “SUCCINATE SALTS OF N-(3-(4-(3-(DIISOBUTYLAMINO)PROPYL)PIPERAZIN-1-YL)PROPYL)-1H-BENZO[D]IMIDAZOL-2-AMINE, PREPARATION THEREOF AND USE OF THE SAME” (ALZPROTECT, priority 2020, published 2023).

On to “N-(3-(4-(3-(diisobutylamino)propyl)piperazin-1-yl)propyl)-1H-benzo[d]imidazol-2-amine sesqui-succinate salt [sesqui-succinate salt Form 1]”, for which the “Post-GVS XRPD crystalline form” value in data set [1] (after exposure to GVS humidity conditions) is “remain as the same crystalline form”. In addition, the GVS weight uptake entry in data set [1] (at 70% RH, 25° C.) was “ca. +0.1 wt. %”. Also, the “GVS water uptake in equivalents” value in data set [1] (up to 90% RH) is given as “approximately 7.1 equiv. water”. The GVS weight increase entry in data set [1] (up to 90% RH, 25° C.) is “ca. +18.9 wt. %”. In data set [1] (up to 90% relative humidity), the hygroscopicity entry is “not hygroscopic”. Besides, the α-syn aggregation entry in the data set on α-syn aggregation (coincubation, 50 or 100 nM) is reported as “significantly reduced”. The α-syn aggregation entry in the data set on α-syn aggregation (pre-incubation, all tested concentrations) is given as “significantly reduced”. For the same substance, in data set [2], the “neurite network of TH positive neurons” value is “significantly improved” and the “neuron survival: total number of TH neurons” value is given as “neuroprotective”.
